Data taken from patent US10351501B2, “Gem difluorocompounds as depigmenting or lightening agents” (TFCHEM, priority 2015, dated 2019).
Values belong to the compound of their own block, whether it stands above or below them.

How the values were obtained:
[1] = Antioxidant activity by the spectrophotometric method of the free radical DPPH•; details: molar ratio antioxidant/DPPH•; absorbance at T = 30 min
Text: The aim of the study was to evaluate the antioxidant activity of compound 11 by the spectrophotometric method of the free radical DPPH• (2,2-diphenyl-1-picrylhydrazyl). Indeed, antioxidants react with DPPH^• (purple), a stable free radical which is reduced to DPPH-H (yellow), and in consequence, the absorbance is decreased from the DPPH^• radical to the DPPH-H form. The degree of discoloration indicates the scavenging potential of the antioxidant compounds in terms of hydrogen donating ability (Popovici et al. Revue de génie industriel 2009, 4, 25-39).
The tested compounds were: Trolox ((±)-6-hydroxy-2,5,7,8-tetramethylchromane-2-carboxylic acid, Sigma Aldrich), as reference, and compound 11.
A stock solution of DPPH• was prepared at 200 μmol/mL in methanol and diluted in methanol in order to have a final concentration of around 150 μmol/mL to obtain a DO close to 0.9 in a plate of 96 wells. The antioxidant stock solutions were prepared at 1 mg/mL in methanol and the tested solutions were prepared from these antioxidant stock solutions as described in Table 7 below.
50 μL of each solution of antioxidant was added to the wells. Then, 200 μL of DPPH^• was added to each well.
The blank was prepared with only 250 μl of methanol and the negative control was prepared with 200 μL DPPH• and 50 μL of methanol.
The analysis was started immediately after the addition of DPPH• lasting for 2 hours (readings every 20 seconds). The absorbance was read at 515 nm. Each experiment was performed three times and had shown that the absorbance decreases while the concentration of antioxidant increased.
The activity of DPPH• is a percentage calculated as the ratio of A/An×100%.
The EC50 is expressed as a molar ratio of antioxidant (compound 11)/DPPH• (Popovici et al. Revue de génie industriel 2009, 4, 25-39). The EC50 was determined from the graph representing the percentage of DPPH• in function of the above mentioned molar ratio (moles of compound 11/moles of DPPH•).
The antioxidant activity of compound 11 was compared to that of Trolox used as a reference (considered as 100%).

human tyrosinase = assay: HumanLike Tyrosinase Assay kit (Feldan), L-Tyrosine to dopachrome, OD at 490 nm; format: biochemical; details: for OD at 490 nm: 1.12 mM
Protocol: The efficacy of compound 16 was evaluated by the inhibition of human tyrosinase in tubo and compared to the compound 11.
The assay was performed with a ready-to-use kit from Feldan Inc (Canada): the HumanLike Tyrosinase Assay kit (ref A021-a-001Kit).
The protocol was performed as described in the instructions for use of the manufacturer. Briefly, this kit is intended for the determination of human tyrosinase activity in presence of different inhibitors. The kit measures the conversion of L-Tyrosine into a dopachrome complex absorbing at 490 nm. The time course of the assay is 20 minutes, after which the results are analyzed and compared.
The compounds 11 and 16 have been tested at a final concentration of 1.12 mM.
The measured absorbances at 490 nm are reported in the table 5 and plotted in function of time in the FIG. 1.
Moreover for each compound the efficacy as tyrosinase inhibitor was calculated using the following formula: […]

[2] = In vitro stability: hydroquinone released in various chemical conditions (HPLC-UV/DAD); format: physicochemical
Protocol: The stability of compound 11 was evaluated by the released of hydroquinone, which is a potentially toxic compound, in different chemical conditions (extreme conditions, simulating the application of these molecules on the skin) and it was compared to the deoxyarbutin.
This study involved different tests as degradation test and chemical stability (various chemical solutions, pH and temperatures).
Analytical Method (HPLC-UV/DAD Method)
Column Atlantis dC18 150 mm*4.6 mm*3 μm Waters, 30° C. Injection 50 μl, 25° C. λ: 220 nm, 265 nm, 285 nm. A-Acetonitrile B-Water; 0.8 ml/min; elution gradient: […]
This analytical method gave linear response for compound 11, Deoxyarbutin and Hydroquinone from 25 ng/mL to 1000 ng/mL. Dilution of samples had to be taken into account for each stability study to calculate the LLOQ of each compound.
The tested compounds are incubated in different solutions, at different times (see table 1). Then the analytical method was used to quantify remaining compounds and potential hydroquinone released (as possible degradation of compounds).
Hydroquinone (HQ) apparition is expressed as a percentage of initial compound 11 or Deoxyarbutin. The calculation was done in molar units and the limit of quantification fluctuates with the initial concentration.

[3] = In vitro human skin absorption, Franz diffusion cell: quantification in the receptor fluid (flux); format: in vitro ADME; details: 200 μl at 2 mg/ml in water on human skin explant; receptor fluid T0 h to T24 h
Text: The aim of this study was to evaluate the absorption of compound 11 applied to excised human skin.
In vitro method using a Franz diffusion cell allows measuring the diffusion of chemicals into and across skin.
The tested compound is applied to the surface of a human skin explant separating the two chambers of a Franz diffusion cell. The compound remains on the skin for a specified time under specified conditions. The receptor fluid is sampled at time points throughout the experiment and analyzed for the tested compound. The skin may also be fractioned for separate analysis in epidermis or dermis layers.
The transcutaneous absorption was measured on human skin collected from the abdominoplasty of a single donor. At reception, the skin was defatted and cut in several fragments in order to perform Franz experiment. […]
The tested compounds were quantified, at T0 h and T24 h in the receptor solution bathing the inner surface of the skin (determination of flux), or at T24 h in the fractionated skin extracts (epidermis or dermis). […]
Sampling: 500 μL from the receptor fluid were removed at T0 h (replaced by Ringer solution) and at T24 h. These samples were analyzed by LC-MS/MS method for quantification of compound 11 and deoxyarbutin (results not shown). The quantity measured allowed to calculate a flux and to compare the absorption profile across the skin of compound 11 and deoxyarbutin.

[4] = molecular target: T1, human recombinant tyrosinase (Homo sapiens, UniProt P14679); assay: Inhibition of human tyrosinase in tubo (L-DOPA substrate, OD at 477 nm), IC50; format: biochemical; details: Tyrosinase Concentration 300 U/mL
T1 sequence (P14679 19-529): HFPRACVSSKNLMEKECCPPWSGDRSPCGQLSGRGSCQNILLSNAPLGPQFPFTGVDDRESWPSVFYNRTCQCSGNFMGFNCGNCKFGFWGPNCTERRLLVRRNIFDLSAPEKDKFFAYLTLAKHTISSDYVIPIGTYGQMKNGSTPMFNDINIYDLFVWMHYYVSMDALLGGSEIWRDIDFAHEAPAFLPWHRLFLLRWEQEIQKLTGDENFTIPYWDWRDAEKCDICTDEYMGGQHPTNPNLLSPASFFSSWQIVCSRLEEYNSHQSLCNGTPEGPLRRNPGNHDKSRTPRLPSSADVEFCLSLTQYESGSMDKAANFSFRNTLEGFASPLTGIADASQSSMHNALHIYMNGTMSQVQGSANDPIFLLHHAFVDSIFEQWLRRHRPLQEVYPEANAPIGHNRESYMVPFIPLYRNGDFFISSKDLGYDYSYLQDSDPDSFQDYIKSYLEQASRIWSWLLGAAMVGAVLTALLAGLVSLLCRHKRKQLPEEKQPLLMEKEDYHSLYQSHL
Protocol: Substrate solution: L-DOPA (1 mg/mL) Solution B (L-DOPA 20 mg/Purified water up to 20 mL)
Preparation of Test Solutions (for IC50 Test—Examples for Deoxyarbutin)
Inhibitors solutions deoxyarbutin (1 mg/mL): Deoxyarbutin 20 mg in purified water up to 20 mL
This assay used a 96-well plate. Test solutions and controls were made several times.
The results were calculated from the OD measured at time point 20 min.
The determination of half maximal inhibitory concentration (IC50) was performed using the following formula.

EC50 (Ratio antioxidant/DPPH•) Mean [1]: 0.240
SMILES: Cc1c(C)c2c(c(C)c1O)CCC(C)(C(=O)O)O2 (racemic) [Trolox, (±)-6-hydroxy-2,5,7,8-tetramethylchromane-2-carboxylic acid, reference compound]

OD at 490 nm (human tyrosinase; time 0 min): 0.0000
OD at 490 nm (human tyrosinase; time 1 min): 0.0105
OD at 490 nm (human tyrosinase; time 2 min): 0.0185
OD at 490 nm (human tyrosinase; time 3 min): 0.0285
OD at 490 nm (human tyrosinase; time 4 min): 0.0385
OD at 490 nm (human tyrosinase; time 5 min): 0.0505
OD at 490 nm (human tyrosinase; time 6 min): 0.0605
OD at 490 nm (human tyrosinase; time 7 min): 0.0720
OD at 490 nm (human tyrosinase; time 8 min): 0.0815
OD at 490 nm (human tyrosinase; time 9 min): 0.0925
OD at 490 nm (human tyrosinase; time 10 min): 0.1025
OD at 490 nm (human tyrosinase; time 11 min): 0.1125
OD at 490 nm (human tyrosinase; time 12 min): 0.1225
OD at 490 nm (human tyrosinase; time 13 min): 0.1330
OD at 490 nm (human tyrosinase; time 14 min): 0.1435
OD at 490 nm (human tyrosinase; time 15 min): 0.1545
OD at 490 nm (human tyrosinase; time 16 min): 0.1650
OD at 490 nm (human tyrosinase; time 17 min): 0.1765
OD at 490 nm (human tyrosinase; time 18 min): 0.1885
OD at 490 nm (human tyrosinase; time 19 min): 0.2000
OD at 490 nm (human tyrosinase; time 20 min): 0.2115
Inhibitor efficacy (%) (human tyrosinase; Compound at 1.12 mM, T = 20 min): 13.7%
SMILES: Oc1ccc(OC2CC(O)CCC2(F)F)cc1 (stereo not shown) [Compound 16]

% Hydroquinone released ([2]; Ringer's solution pH 5.5 at 70° C., 24 H): 11.83%
% Hydroquinone released ([2]; Ringer's solution pH 8.5 at 70° C., 24 H): 88.76%
% Hydroquinone released ([2]; Synthetic perspiration at RT, 48 H): 128.61%
% Hydroquinone released ([2]; Water at room temperature, 14 Days): 4.20%
Flux, mean (n = 3) [3]: 3.98 μg/h/cm^2
Calculated IC50 Mean ([4]; mean of 4 tests): 53 µg/mL
IC50 ([4]; read-out: IC50): 272 µM
Calculated IC50 Test #1 ([4]; time 20 min): 26 µg/mL
Calculated IC50 Test #2 ([4]; time 20 min): 45 µg/mL
Calculated IC50 Test #3 ([4]; time 20 min): 80 µg/mL
Calculated IC50 Test #4 ([4]; time 20 min): 60 µg/mL
SMILES: Oc1ccc(OC2CCCCO2)cc1 (stereo not shown) [Deoxyarbutin, reference compound]
